Measured values from patent publication US8686152B2, “4,4-disubstituted piperidine derivatives useful as inhibitors of dipeptidyl peptidase-1 (DPP-1)” (Janssen Pharmaceutica NV, priority 2010, dated 2014).
Structures can show the parent of a compound that is named as a salt.

Biological target: T1, recombinant human DPP-1 (Cathepsin C) (Homo sapiens, UniProt P53634)
T1 construct: made in house
Test: DPP-1 Inhibition Assay (In Vitro), fluorogenic substrate GR-AMC
Type: biochemical
Settings: 0.15 nM DPP-1, 10 uM GR-AMC, pH 7.0, room temperature; average value where tested multiple times
Method: Test compounds were assessed for DPP-1 (Cathepsin C) inhibitory activity using a fluorogenic substrate, GR-AMC (Glycine-Arginine-amino-4-methylcoumarin, Bachem, I-1215). The amount of amino-methylcoumarin released is proportional to the DPP-1 activity, and the reaction is monitored kinetically with a Molecular Devices plate reader using black 96-well plates.
All compounds were tested under room temperature conditions. The assay buffer consisted of 50 mM HEPES, pH 7.0, 100 mM NaCl, 2 mM glutathione (GSH), and 0.002% TWEEN 20. GSH and TWEEN 20 were added to the buffer fresh daily. Just prior to use, an in-house preparation of recombinant human DPP-1 (240 μM stock, MW 49.6 kD) was diluted 600-fold in assay buffer containing fresh 2 mM dithiothreitol (DTT) to activate the enzyme, then diluted into assay buffer (without DTT) 133-fold for a DPP-1 working solution of 3 nM. Test compounds were diluted in DMSO for 20× their final assay concentrations.
Additions to a 96-well black Costar 3915 plates were as follows: 90 μL of 11 μM GR-AMC, 5 μL test compound (followed by mixing), and 5 μL 3 nM DPP-1 to start the reaction. Fluorescent reactions were monitored kinetically at 360 nm excitation, 440 nm emission on a Molecular Devices Spectramax XPS reader. The Softmax Pro software of the reader determined the initial velocity of the selected data (the first 3-5 minutes of the reaction), and the best linear regression fit of the initial kinetic data. Final assay conditions were 0.15 nM DPP-1, 10 uM GR-AMC, 50 mM HEPES, pH 7.0, 100 mM NaCl, 2 mM GSH, 0.002% TWEEN 20, 1 uM DTT, 5.0% DMSO. Initial velocity rates were plotted vs. test compound concentration by use of a four-parameter logistics equation (nonlinear regression, sigmoidal dose-response (variable slope), with fixed Hill (1.0) using GraphPad Prism® software for determination of DPP-1 IC50. Within-run assay coefficient of variation (CV) was generally <10%; between-run CV <20%.
Representative compounds of the present invention were tested according to the procedure as described above, with results as listed in Table 5, below.

T1 sequence (P53634 25-463): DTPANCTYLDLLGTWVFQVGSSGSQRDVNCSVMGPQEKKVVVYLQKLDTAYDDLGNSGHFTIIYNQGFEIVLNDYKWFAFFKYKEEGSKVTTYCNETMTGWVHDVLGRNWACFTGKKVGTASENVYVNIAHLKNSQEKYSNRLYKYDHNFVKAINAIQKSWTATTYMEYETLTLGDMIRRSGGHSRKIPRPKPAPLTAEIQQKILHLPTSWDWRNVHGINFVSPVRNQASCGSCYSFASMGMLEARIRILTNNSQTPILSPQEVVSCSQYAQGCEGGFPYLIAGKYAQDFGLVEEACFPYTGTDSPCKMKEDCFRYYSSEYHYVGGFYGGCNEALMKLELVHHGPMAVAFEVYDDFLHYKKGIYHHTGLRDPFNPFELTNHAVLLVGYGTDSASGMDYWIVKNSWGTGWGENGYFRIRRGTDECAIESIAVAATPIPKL

IC50	SMILES
52 nM	CC(=O)Nc1ccccc1-c1ccc(CC2(C(=O)NC3CCCCC3)CCN(C(=O)[C@@H](N)Cc3cccs3)CC2)cc1 [Compound 45]
84 nM	N[C@@H](Cc1cccs1)C(=O)N1CCC(Cc2ccc(-c3ccccc3)cc2)(C(=O)NCC2CCCCC2)CC1 [Compound 3, (S)-1-(2-amino-3-(thiophen-2-yl)propanoyl)-4-(biphenyl-4-ylmethyl)-N-(cyclohexylmethyl)piperidine-4-carboxamide hydrochloride]
6500 nM	CCC[C@H](N)C(=O)N1CCC(Cc2cccnc2)(C(=O)NCC2CCCCC2)CC1 [Compound 136]
3000 nM	CC[C@H](N)C(=O)N1CCC(Cc2ccc(-c3ccccc3)cc2)(C(=O)NCC2CCCCC2)CC1 [Compound 5]
880 nM	N[C@@H](Cc1cccs1)C(=O)N1CCC(Cc2cccc(-c3ccccc3)c2)(C(=O)OCC2CCCCC2)CC1 [Compound 30]
930 nM	N[C@@H](Cc1c[nH]cn1)C(=O)N1CCC(Cc2ccc(-c3ccccc3)cc2)(C(=O)NCC2CCCCC2)CC1 [Compound 9]
5600 nM	CCSCC[C@H](N)C(=O)N1CCC(Cc2ccc(-c3ccccc3)cc2)(C(=O)NCC2CCCCC2)CC1 [Compound 106]
100 nM	N[C@@H](Cc1cccs1)C(=O)N1CCC(Cc2ccc(-c3ccc(C(=O)O)cc3)cc2)(C(=O)NC2CCCCC2)CC1 [Compound 52]
35 nM	N[C@@H](Cc1cccs1)C(=O)N1CCC(Cc2ccc(-c3cccnc3)cc2)(C(=O)NC2CCCCC2)CC1 [Compound 50]
29 nM	COc1ccc(-c2ccc(CC3(C(=O)NC4CCCCC4)CCN(C(=O)[C@@H](N)Cc4cccs4)CC3)cc2)cn1 [Compound 44]
18000 nM	COC[C@H](N)C(=O)N1CCC(Cc2ccc(-c3ccccc3)cc2)(C(=O)NC2CCCCC2)CC1 [Compound 39]
31 nM	CC(=O)Nc1cccc(-c2ccc(CC3(C(=O)NC4CCCCC4)CCN(C(=O)[C@@H](N)Cc4cccs4)CC3)cc2)c1 [Compound 54]
220 nM	N[C@@H](Cc1cccs1)C(=O)N1CCC(Cc2ccccc2)(C(=O)OCC2CCCCC2)CC1 [Compound 11]
230 nM	N[C@@H](Cc1ccco1)C(=O)N1CCC(Cc2ccc(-c3ccccc3)cc2)(C(=O)NC2CCCCC2)CC1 [Compound 37]
5600 nM	N[C@@H](Cc1ccc(Cl)s1)C(=O)N1CCC(Cc2ccc(-c3ccccc3)cc2)(C(=O)NC2CCCCC2)CC1 [Compound 78]
83 nM	N[C@@H](Cc1cccs1)C(=O)N1CCC(Cc2ccc(-c3nnn[nH]3)cc2)(C(=O)NCC2CCCCC2)CC1 [Compound 127]

More lines, now with the values behind:

SMILES	IC50
N[C@@H](Cc1cccs1)C(=O)N1CCC(Cc2ccc(-c3ccc4c(c3)OCO4)cc2)(C(=O)NC2CCCCC2)CC1 [Compound 40]	35 nM
COc1cccc(CC2(C(=O)NC3CCCCC3)CCN(C(=O)[C@@H](N)Cc3cccs3)CC2)c1 [Compound 84]	56 nM
N[C@@H](Cc1c[nH]cn1)C(=O)N1CCC(Cc2cccnc2)(C(=O)NC2CCCCC2)CC1 [Compound 68]	910 nM
N[C@@H](Cc1cccs1)C(=O)N1CCC(Cc2ccc(I)cc2)(C(=O)NC2CCCCC2)CC1 [Compound 41]	37 nM
N[C@@H](Cc1cccs1)C(=O)N1CCC(Cc2cccnc2)(C(=O)NC2CCCCC2)CC1 [Compound 66]	54 nM
N[C@@H](Cc1cccs1)C(=O)N1CCC(Cc2ccc(NS(=O)(=O)C(F)(F)F)cc2)(C(=O)NC2CCCCC2)CC1 [Compound 89]	150 nM
N[C@@H](Cc1cccs1)C(=O)N1CCC(Cc2ccc(C(=O)N3CCCC3)cc2)(C(=O)NC2CCCCC2)CC1 [Compound 58]	73 nM
N[C@@H](Cc1cccs1)C(=O)N1CCC(C(=O)NC2=NCCS2)(c2ccccc2)CC1 [Compound 114]	220 nM
CC[C@H](N)C(=O)N1CCC(Cc2cccnc2)(C(=O)OCC2CCCCC2)CC1 [Compound 23]	8200 nM
N[C@@H](Cc1cccs1)C(=O)N1CCC(Cc2ccncc2)(C(=O)OCC2CCCCC2)CC1 [Compound 22]	93 nM
N[C@@H](Cc1cccs1)C(=O)N1CCC(Cc2ccc(F)cc2F)(C(=O)OCC2CCCCC2)CC1 [Compound 27]	220 nM
CC[C@H](N)C(=O)N1CCC(Cc2ccc(Cl)cc2)(C(=O)OCC2CCCCC2)CC1 [Compound 13]	4300 nM
CC[C@H](N)C(=O)N1CCC(Cc2ccncc2)(C(=O)OCC2CCCCC2)CC1 [Compound 21]	7400 nM
N[C@@H](Cc1cccs1)C(=O)N1CCC(Cc2ccc(Cl)cc2)(C(=O)OCC2CCCCC2)CC1 [Compound 14]	350 nM
COC(=O)[C@H]1CC[C@H](CNC(=O)C2(c3ccccc3)CCN(C(=O)[C@@H](N)Cc3cccs3)CC2)CC1 [Compound 110]	170 nM
N[C@@H](Cc1c[nH]cn1)C(=O)N1CCC(Cc2cccnc2)(C(=O)OCC2CCCCC2)CC1 [Compound 25]	1800 nM
N#Cc1ccc(CC2(C(=O)OCC3CCCCC3)CCN(C(=O)[C@@H](N)Cc3c[nH]cn3)CC2)cc1 [Compound 16]	1200 nM

SMILES	IC50
N[C@@H](Cc1cccs1)C(=O)N1CCC(Cc2ccc(C(=O)O)cc2)(C(=O)NC2CCCCC2)CC1 [Compound 62]	360 nM
N[C@@H](Cc1cccs1)C(=O)N1CCC(C(=O)NCC2CCOCC2)(c2ccccc2)CC1 [Compound 104]	76 nM
CC[C@H](N)C(=O)N1CCC(C(=O)NC2CCCCC2)(c2ccccc2)CC1 [Compound 70]	9400 nM
C[C@@H](O)[C@H](N)C(=O)N1CCC(C(=O)NCC2CCCCC2)(c2ccccc2)CC1 [Compound 139]	2600 nM
NC(=O)c1ccc(CC2(C(=O)NC3CCCCC3)CCN(C(=O)[C@@H](N)Cc3cccs3)CC2)cc1 [Compound 61]	47 nM
N[C@@H](Cc1cccs1)C(=O)N1CCC(Cc2ccc(C(=O)Nc3ccccc3)cc2)(C(=O)NC2CCCCC2)CC1 [Compound 60]	33 nM
N[C@@H](Cc1cccs1)C(=O)N1CCC(Cc2cccnc2)(C(=O)OCC2CCCCC2)CC1 [Compound 24]	99 nM
N[C@@H](Cc1cccs1)C(=O)N1CCC(C(=O)NC2CCOCC2)(c2ccccc2)CC1 [Compound 103]	310 nM
N[C@@H](Cc1cccs1)C(=O)N1CCC(C(=O)NC2CCCCC2)(c2ccccc2)CC1 [Compound 69]	73 nM
N[C@@H](Cc1cccs1)C(=O)N1CCC(Cc2cccc(-c3cccc(C(=O)O)c3)c2)(C(=O)NC2CCCCC2)CC1 [Compound 101]	140 nM
N[C@@H](Cc1cccs1)C(=O)N1CCC(C(=O)N[C@H]2CC[C@H](C(=O)O)CC2)(c2ccccc2)CC1 [Compound 115]	200 nM
N[C@@H](Cc1cccs1)C(=O)N1CCC(Cc2ccc(-c3ccc(C(F)(F)F)cc3)cc2)(C(=O)NC2CCCCC2)CC1 [Compound 53]	140 nM
N[C@@H](Cc1c[nH]cn1)C(=O)N1CCC(Cc2ccccc2)(C(=O)OCC2CCCCC2)CC1 [Compound 12]	~5000 nM
N[C@@H](Cc1cc(Br)cs1)C(=O)N1CCC(Cc2ccc(I)cc2)(C(=O)NC2CCCCC2)CC1 [Compound 92]	5600 nM
Cc1ccc(C2(C(=O)NCC3CCOCC3)CCN(C(=O)[C@@H](N)Cc3cccs3)CC2)cc1 [Compound 130]	41 nM
N[C@@H](Cc1cccs1)C(=O)N1CCC(Cc2cccc(-c3cncnc3)c2)(C(=O)NC2CCCCC2)CC1 [Compound 97]	39 nM
N[C@@H](Cc1cccs1)C(=O)N1CCC(Cc2ccc(C(F)(F)F)cc2)(C(=O)OCC2CCCCC2)CC1 [Compound 19]	400 nM
